Data: ChEMBL document CHEMBL1201862, “PubChem BioAssay data set” (2004)
Activity calls are given as the source filed them.

Tests used:
[1] = Luminescence Cell-Based Dose Response HTS to Identify Activators of Luciferase Translation or Activity in H4 […] Cells. [Related pubchem assays: 1829 (Project Summary), 1814 (Primary HTS)]; type: functional
[2] = Luminescence Cell-Based Dose Response to Identify Activators of 5'UTR Stem-Loop Driven Prion Protein mRNA Translation in H4-C Neuroglioblastoma Cells. [Related pubchem assays: 1829 (Project Summary), 1814 (Primary HTS)]; type: functional
[3] = molecular target: T1, Oxysterols receptor LXR-beta (Homo sapiens, UniProt P55055); type: functional, cell-based;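 also: agonist activity at LXR measured by a cell-based luminescence readout across a dose range, run as a counterscreen for daf-12 agonists; HEK293 cells with Gal4-LXR fusion and GAL4-driven luciferase reporter; potency for activation of Gal4-LXR reporter so compounds are agonists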
T1 sequence (P55055 whole entry): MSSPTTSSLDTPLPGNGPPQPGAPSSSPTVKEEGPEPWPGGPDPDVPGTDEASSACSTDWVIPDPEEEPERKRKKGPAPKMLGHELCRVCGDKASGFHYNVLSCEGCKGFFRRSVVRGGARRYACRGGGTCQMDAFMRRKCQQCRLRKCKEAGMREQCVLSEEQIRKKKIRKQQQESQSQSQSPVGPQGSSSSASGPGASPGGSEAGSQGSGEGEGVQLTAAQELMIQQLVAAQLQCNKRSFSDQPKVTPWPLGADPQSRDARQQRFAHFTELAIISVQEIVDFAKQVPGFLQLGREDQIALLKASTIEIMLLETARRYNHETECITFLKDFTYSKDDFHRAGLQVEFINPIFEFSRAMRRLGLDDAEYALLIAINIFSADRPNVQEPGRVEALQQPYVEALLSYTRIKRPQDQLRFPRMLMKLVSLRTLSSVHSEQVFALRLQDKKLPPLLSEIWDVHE

[4] = Luminescence Cell-Based Dose Confirmation to Identify Activators of 5'UTR Stem-Loop Driven Alpha-Synuclein mRNA Translation in H4 Neuroglioblastoma Cells. [Related pubchem assays: 1829 (Project Summary), 1814 (Primary HTS)]; type: functional
[5] = Luminescence Cell-Based Dose Response to Identify Activators of Luciferase Translation or Activity in H4-C Neuroglioblastoma Cells. [Related pubchem assays: 1829 (Project Summary), 1814 (Primary HTS)]; type: functional
[6] = molecular target: Disintegrin and metalloproteinase domain-containing protein 17 (Homo sapiens, UniProt P78536); assay: exosite inhibitors of ADAM17, dose response, biochemical (AID 743260)
[7] = inhibition of ADAM10 peptide cleavage – biochemical, FRET peptide substrate, recombinant human ADAM10, selectivity assay for ADAM17 exosite inhibitor project, dose response (AID 743259);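 also: ADAM10 enzyme cleaving a FRET peptide substrate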
[8] = viability of uninfected HEp-2 cells – cell-based, HTS, cytotoxicity control for RSV inhibitor project, dose response (AID 2410); type: functional; settings: human respiratory syncytial virus
[9] = general mammalian cell viability loss – activator set, cherry-pick, cytotoxicity control for miR-122 modulator project, dose response (AID 720690); type: functional, cell-based;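 also: HEK293T human cells scored for general mammalian cytotoxicity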
[10] = system: Streptococcus sp. 'group A'; assay: Streptococcus pyogenes SK(-)GAS viability under kanamycin – luminescence, BacTiterGlo, confirmation, counter-screen for streptokinase expression inhibitor project, dose response (AID 1900); type: functional, organism-based; settings: Streptococcus sp. 'group A'
[11] = molecular target: T2, Streptokinase A (Streptococcus pyogenes serotype M1, UniProt P10520); assay: viability-normalized secreted streptokinase activity reduction – plasminogen activation absorbance, OD405, dose response (AID 1914); type: functional, Streptococcus pyogenes M1 GAS;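 also: secreted streptokinase activity via plasminogen activation per viability signal from cell pellet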
T2 sequence (P10520 whole entry): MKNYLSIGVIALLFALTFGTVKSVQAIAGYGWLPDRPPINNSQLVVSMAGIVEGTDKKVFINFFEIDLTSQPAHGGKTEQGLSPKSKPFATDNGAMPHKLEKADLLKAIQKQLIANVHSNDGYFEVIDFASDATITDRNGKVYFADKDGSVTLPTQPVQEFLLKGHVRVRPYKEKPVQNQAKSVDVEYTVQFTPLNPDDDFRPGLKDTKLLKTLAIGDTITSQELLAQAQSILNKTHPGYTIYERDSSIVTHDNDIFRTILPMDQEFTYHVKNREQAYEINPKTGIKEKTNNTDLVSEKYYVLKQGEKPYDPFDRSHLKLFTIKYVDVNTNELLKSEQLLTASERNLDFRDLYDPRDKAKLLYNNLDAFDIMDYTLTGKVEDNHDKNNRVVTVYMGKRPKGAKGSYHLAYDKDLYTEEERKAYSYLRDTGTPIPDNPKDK

[12] = molecular target: T3, Long-chain-fatty-acid--AMP ligase FadD28 (Mycobacterium tuberculosis, UniProt P9WQ59); assay: Fluorescence polarization aasay to screen for inhibitors that compete for the binding of FadD28 to a bisubstrate Measured in Biochemical System Using Plate Reader - 2147-01_Inhibitor_Dose_CherryPick_Activity.; type: functional, Mycobacterium tuberculosis H37Rv
T3 sequence (P9WQ59 whole entry): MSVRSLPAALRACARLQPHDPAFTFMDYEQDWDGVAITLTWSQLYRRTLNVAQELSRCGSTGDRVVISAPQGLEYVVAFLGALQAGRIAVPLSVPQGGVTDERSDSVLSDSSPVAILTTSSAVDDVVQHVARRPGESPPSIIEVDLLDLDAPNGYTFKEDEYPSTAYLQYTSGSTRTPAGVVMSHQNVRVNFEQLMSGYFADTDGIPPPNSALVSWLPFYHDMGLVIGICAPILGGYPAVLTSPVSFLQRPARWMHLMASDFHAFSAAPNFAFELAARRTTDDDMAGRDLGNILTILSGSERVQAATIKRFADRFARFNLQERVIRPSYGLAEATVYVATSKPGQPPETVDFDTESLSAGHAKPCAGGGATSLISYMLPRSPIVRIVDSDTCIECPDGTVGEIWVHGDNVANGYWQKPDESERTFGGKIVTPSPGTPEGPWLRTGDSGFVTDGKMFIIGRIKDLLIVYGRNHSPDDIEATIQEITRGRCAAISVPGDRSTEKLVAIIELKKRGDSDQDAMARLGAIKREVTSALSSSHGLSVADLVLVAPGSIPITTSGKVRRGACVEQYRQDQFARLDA

[13] = system: Streptococcus; assay: GAS UMAA2166 growth inhibition – luminescence, BacTiterGlo, counter-screen for streptokinase expression inhibitor project, dose response (AID 1915); type: functional, organism-based; settings: Streptococcus;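 also: potency for reduction of bacterial viability or growth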
[14] = cells; type: functional
[15] = bead-based luminescence quenchers, dual-tagged ARNT – biochemical, AlphaScreen, cherry-pick, artefact control for ARNT-TACC3 interaction inhibitor project, dose response (AID 651705); type: functional;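 also: AlphaScreen bead proximity signal that flags compounds interfering with the detection technology; potency reflects signal decrease which marks the compound as an assay artifact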
[16] = molecular target: T4, Adenosylmethionine-8-amino-7-oxononanoate aminotransferase (Mycobacterium tuberculosis, UniProt P9WQ81); assay: Mycobacterium tuberculosis BioA enzyme inhibitor Measured in Biochemical System Using Plate Reader - 2163-02_Inhibitor_Dose_CherryPick_Activity.; type: functional, Mycobacterium tuberculosis UT205
T4 sequence (P9WQ81 whole entry): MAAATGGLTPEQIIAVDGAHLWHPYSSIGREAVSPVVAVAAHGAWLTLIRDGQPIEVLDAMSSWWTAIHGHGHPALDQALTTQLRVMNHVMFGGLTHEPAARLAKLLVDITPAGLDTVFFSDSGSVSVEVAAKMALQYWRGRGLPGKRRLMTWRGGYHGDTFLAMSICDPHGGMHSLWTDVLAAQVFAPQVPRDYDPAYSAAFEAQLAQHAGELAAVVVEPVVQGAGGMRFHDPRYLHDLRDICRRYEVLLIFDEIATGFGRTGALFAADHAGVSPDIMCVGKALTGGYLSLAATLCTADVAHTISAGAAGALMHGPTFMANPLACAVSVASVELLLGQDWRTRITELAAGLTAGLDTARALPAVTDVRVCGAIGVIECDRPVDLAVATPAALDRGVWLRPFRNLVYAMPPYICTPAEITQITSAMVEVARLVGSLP

[17] = HGIII-sPLA2 enzyme inhibition potency – biochemical, QFRET, IC50, dose response (AID 743457);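 also: green fluorescence rise as the enzyme cleaves BODIPY PC-A2 in liposomes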
[18] = Luminescence Cell-Based Dose Confirmation HTS to Identify Inhibitors of Platelet Dense Granule Release. [Related pubchem assays: 1663 (Primary HTS), 1678 (Summary of Project)]; type: functional
[19] = molecular target: Luciferin 4-monooxygenase (Photinus pyralis, UniProt P08659); assay: inhibition of purified Photinus pyralis luciferase – biochemical, luminescence, dose response (AID 1891)
[20] = cells; type: functional, cell-based
[21] = cells; type: functional, cell-based; remark: listed apart in the source
[22] = blockers of bursicon-stimulated LGR2 cAMP reporter – cell-based, HEK293, CRE-luciferase reporter, cherry pick, set 2, dose response (AID 743343); type: functional;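 also: transfected cells were stimulated with diluted bursicon conditioned medium after compound addition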
[23] = system: INS1; assay: INS-1E survival protection against cytokine death – cell-based, luminescence, retest, dose response (AID 449756); type: functional; settings: Rattus norvegicus;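 also: cell death triggered by IL-1 beta plus TNF-alpha plus IFN-gamma mixture; protective hits raise ATP signal compared with cytokine alone wells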
[24] = toxicity toward HepG2 liver cells – cell-based, plate reader, cherry-pick, antagonist series, cytotoxicity control, dose response (AID 743416); type: functional
[25] = HepG2 cell cytotoxicity, dose response, cytotoxicity control for non-replicating M. tuberculosis project (AID 489018); type: functional; settings: Mycobacterium tuberculosis
[26] = THP-1 cell cytotoxicity, dose response, cytotoxicity control for non-replicating M. tuberculosis project (AID 489025); type: functional
[27] = NIH-3T3 fibroblast cytotoxicity, dose response, cytotoxicity control, cell-based, fluorescence, Alamar Blue, secondary assay (AID 2327); type: functional;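 also: NIH-3T3 mouse fibroblasts cultured with fluconazole at 8 µg/mL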
[28] = fluconazole-exposed Candida albicans growth modulators – fluorescence, retest, confirmation (AID 2467); type: functional, cell-based
[29] = luciferase reporter signal suppression in cells – H4 neuroglioma cells, luminescence, dose response (AID 1990); type: functional, cell-based
[30] = alpha-synuclein stem-loop luciferase translation blockers – H4 neuroglioma cells, luminescence, confirmation (AID 1988); type: functional, cell-based
[31] = Luminescence Cell-Based Dose Response HTS to Identify Inhibitors of 5'UTR Stem-Loop Driven Prion Protein mRNA Translation in H4 Neuroglioblastoma Cells. [Related pubchem assays: 1827 (Project Summary), 1813 (Primary HTS)]; type: functional
[32] = Vero E6 cell cytotoxicity, dose response, cytotoxicity control for non-replicating M. tuberculosis project, secondary assay (AID 492998); type: functional, VeroE6; settings: Vero C1008
[33] = A549 cell cytotoxicity, dose response, cytotoxicity control, plate reader, cherry-pick, antagonist series (AID 743412); type: functional, cell-based
[34] = molecular target: T5, Caspase-6 (Homo sapiens, UniProt P55212); assay: inhibition of CASP6 peptide cleavage – biochemical, VEID-R110 fluorescence, cherry-pick, dose response (AID 720632)
T5 sequence (P55212 whole entry): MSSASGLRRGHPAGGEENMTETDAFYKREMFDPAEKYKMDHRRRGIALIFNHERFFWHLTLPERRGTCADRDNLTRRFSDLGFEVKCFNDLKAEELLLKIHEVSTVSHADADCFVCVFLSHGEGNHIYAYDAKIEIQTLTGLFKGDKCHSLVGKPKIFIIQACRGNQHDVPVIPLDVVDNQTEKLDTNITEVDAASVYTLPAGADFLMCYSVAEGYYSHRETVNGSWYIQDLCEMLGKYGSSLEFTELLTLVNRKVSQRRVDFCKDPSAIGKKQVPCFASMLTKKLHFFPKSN

Disintegrin and metalloproteinase domain-containing protein 17, sequence (P78536 whole entry, the tested form may be a part): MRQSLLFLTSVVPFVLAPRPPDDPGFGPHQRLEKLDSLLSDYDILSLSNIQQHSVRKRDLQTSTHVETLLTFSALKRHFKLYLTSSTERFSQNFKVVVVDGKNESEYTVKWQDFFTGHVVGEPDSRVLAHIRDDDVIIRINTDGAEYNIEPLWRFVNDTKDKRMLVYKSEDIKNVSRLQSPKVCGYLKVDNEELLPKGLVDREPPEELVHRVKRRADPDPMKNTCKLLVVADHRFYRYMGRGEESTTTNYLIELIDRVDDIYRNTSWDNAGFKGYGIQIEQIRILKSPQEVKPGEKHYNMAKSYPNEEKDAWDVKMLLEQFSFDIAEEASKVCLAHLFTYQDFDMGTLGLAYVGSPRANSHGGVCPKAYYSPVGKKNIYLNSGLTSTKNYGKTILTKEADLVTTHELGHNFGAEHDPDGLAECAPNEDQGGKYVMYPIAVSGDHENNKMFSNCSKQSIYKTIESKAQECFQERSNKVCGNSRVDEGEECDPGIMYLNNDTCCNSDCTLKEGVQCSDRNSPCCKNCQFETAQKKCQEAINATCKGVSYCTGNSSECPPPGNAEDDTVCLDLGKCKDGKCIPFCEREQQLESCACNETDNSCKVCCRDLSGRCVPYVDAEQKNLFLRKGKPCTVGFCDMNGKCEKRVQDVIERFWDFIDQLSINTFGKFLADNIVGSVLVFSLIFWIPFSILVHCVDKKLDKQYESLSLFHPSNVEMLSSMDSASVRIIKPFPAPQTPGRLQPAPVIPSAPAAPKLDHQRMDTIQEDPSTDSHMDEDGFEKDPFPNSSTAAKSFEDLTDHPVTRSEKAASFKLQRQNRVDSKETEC
Luciferin 4-monooxygenase, sequence (P08659 whole entry): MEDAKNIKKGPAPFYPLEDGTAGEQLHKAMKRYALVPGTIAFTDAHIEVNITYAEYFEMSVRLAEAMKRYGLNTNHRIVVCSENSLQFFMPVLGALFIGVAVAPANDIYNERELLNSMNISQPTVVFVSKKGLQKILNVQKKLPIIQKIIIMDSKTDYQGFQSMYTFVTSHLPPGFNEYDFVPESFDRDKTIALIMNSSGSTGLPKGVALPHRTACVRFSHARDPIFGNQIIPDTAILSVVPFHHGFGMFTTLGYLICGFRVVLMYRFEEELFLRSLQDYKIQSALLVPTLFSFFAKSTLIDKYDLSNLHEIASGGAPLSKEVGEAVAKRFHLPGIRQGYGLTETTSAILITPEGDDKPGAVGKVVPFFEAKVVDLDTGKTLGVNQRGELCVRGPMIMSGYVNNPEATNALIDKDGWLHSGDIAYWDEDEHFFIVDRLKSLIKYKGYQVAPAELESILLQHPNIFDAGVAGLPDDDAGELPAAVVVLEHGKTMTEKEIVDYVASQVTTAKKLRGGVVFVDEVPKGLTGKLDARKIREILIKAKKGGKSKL

SMILES: CCOC(=O)c1cnc(SCc2ccccc2)nc1N
- EC50 [1]: < 0.1 µM (active)
- EC50 [2]: 0.342 µM (active)
- EC50 [3]: > 67.5 µM (inactive)
- EC50 [4]: 0.23 µM (active)
- EC50 [5]: 0.278 µM (active)

SMILES: COC(=O)C1=C(c2ccccc2OCc2ccccc2)C[C@@H]2CC[C@H]1N2C(=O)NCc1ccc(Cl)cc1
- IC50 [6]: > 69.5 µM (inactive)
- IC50 [7]: > 7.72 µM (active)

SMILES: Cc1cccc(C(=N)NOC(=O)c2cccs2)c1
- EC50 [3]: > 67.5 µM (inactive)

SMILES: COc1ccc2c(c1)C(C)=CC(C)(C)N2C(=O)CNCc1ccc2c(c1)OCO2
- CC50 [8]: > 50 µM (active)
- AC50 [9]: 40.4 µM (active)

SMILES: Cc1ccc(NC(=O)C(OC(=O)c2cc(C)oc2C)c2ccccc2)cc1 (stereo unspecified)
- IC50 [6]: > 69.5 µM (inactive)
- IC50 [7]: 24.5 µM (inactive)

SMILES: CCc1c(O)n(C2CCCCC2)c(SCC(=O)Nc2nc3ccccc3s2)nc1=O
- EC50 [10]: 11.8 µM (active)
- EC50 [11]: 17.1 µM (active)
- AC50 [12]: 29 µM (active)
- EC50 [13]: 122 µM (active)

SMILES: Clc1cccc(-c2ccc(CNCc3ccccn3)o2)c1
- IC50 [14]: 3.05 µM (active)
- AC50 [15]: 94.4 µM (active)

SMILES: O=C(CSc1nc2cc(C(=O)O)ccc2c(=O)n1-c1ccc(F)cc1)Nc1ccc(F)c(F)c1F
- AC50 [16]: 2.65 µM (active)

SMILES: O=c1[nH]c(N2CCN(Cc3ccc4c(c3)OCO4)CC2)nc2c1CCC2
- AC50 [16]: 0.93 µM (active)

SMILES: CC(Oc1ccccc1)C(=O)OCC(=O)N1CC(=O)Nc2ccccc21 (stereo unspecified)
- AC50 [12]: > 100 µM (inactive)

SMILES: O=c1c2ccccc2cnn1-c1ccc2ccccc2c1
- EC50 [3]: > 67.5 µM (inactive)

SMILES: O=C(NNC(=S)NC1CCCCC1)c1ccccc1Cl
- IC50 [17]: > 122 µM (inactive)

SMILES: CCC(NCCc1ccccc1)=C1C(=O)NC(=O)NC1=O
- EC50 [18]: 14.5 µM (active)
- EC50 [19]: > 112 µM (not active)
- IC50 [20]: > 29.9 µM (inactive)
- EC50 [21]: > 29.9 µM (inactive)

SMILES: CC(C)c1ccc2c(c1)C(N1CCNCC1)Cc1ccc(F)cc1S2 (stereo unspecified)
- AC50 [22]: 38.2 µM (active)
- AC50 [23]: 6.71 µM (active)
- IC50 [14]: 14.2 µM (active)
- AC50 [24]: 7.87 µM (active)
- CC50 [25]: 18.1 µM (active)
- CC50 [26]: 16.3 µM (active)
- EC50 [27]: > 150 µM (inactive)
- EC50 [28]: > 38 µM (not active)
- EC50 [29]: > 120 µM (not active)
- EC50 [30]: 11.6 µM (active)
- EC50 [31]: 25.7 µM (active)
- CC50 [32]: 12.3 µM (active)
- AC50 [33]: 6.71 µM (active)

SMILES: CC(=O)c1cccc(OCC(O)CNCCc2ccc(Cl)cc2)c1 (stereo unspecified)
- IC50 [20]: > 29.9 µM (inactive)
- EC50 [21]: > 29.9 µM (inactive)

SMILES: CN(c1ccc(OCC(=O)Nc2cc(Cl)ccc2C(=O)O)cc1)S(=O)(=O)c1ccc(F)cc1
- AC50 [34]: 27.2 µM (active)

SMILES: CN1c2ccc(-c3ccccc3)cc2[C@H]2[C@H](CCN2C(=O)Cc2ccccn2)[C@H]1CO
- AC50 [16]: 6.13 µM (active)

SMILES: COc1cc(NC(=O)C/C(C)=N/NC(=O)Cc2ccccc2)c(OC)cc1Cl
- IC50 [6]: > 69.5 µM (inactive)
- IC50 [7]: > 69.5 µM (inactive)
